{"source": "patent US20130252988A1", "about": "“COMPOSITIONS AND METHODS FOR TREATING MYELOFIBROSIS” (TARGEGEN, INC., priority 2010, published 2013)", "origin": "cited, not measured here", "conditions": "Kantarjian H M et al., Blood 110:3540-3546, 2007; cited from earlier work"}
{"smiles": "Cc1cn(-c2cc(NC(=O)c3ccc(C)c(Nc4nccc(-c5cccnc5)n4)c3)cc(C(F)(F)F)c2)cn1", "note": "[nilotinib]", "values": [{"measurement": "Asymptomatic hyperamylasemia, sometimes with hyperlipasemia, as toxicity", "result": "observed"}]}
